Columns and labels:
[1] = test system: Jurkat proteomes; test: In vitro competition of KY-26 labeling, gel-based chemical proteomics; type: binding, human; conditions: pretreatment 30 min, 37° C.: ATP 10-0.5 mM, KY-424 1 and 0.5 mM, then KY-26 5 μM
Method: (§1) Briefly, Jurkat cells were grown to 80% confluency and treated with either DMSO or probe at the designated final concentration (KY-26 or XO44, 1,000× stock in serum-free media (SFM)) and incubated at 37° C. with 5% CO2 for 30 min. Cells were harvested and lysed in PBS buffer containing EDTA-free protease inhibitors. Addition of the rhodamine fluorescent tag was accomplished by CuAAC and fluorescently labeled proteins visualized by SDS-PAGE and in-gel fluorescence scanning. For KY-26 and XO44 live cell treated samples, 50 μL aliquots of proteome were used for gel experiments. […]
(§2) Cell pellets were lysed in PBS buffer (PBS+a protease inhibitor (sold under the tradename PIERCE™, Thermo Fisher Scientific, Waltham, Massachusetts, United States of America), EDTA free) by sonicating 3 times for 1 second×20% amplitude. […] Protein concentrations were measured using the Bio-Rad DC protein assay (Bio-Rad Laboratories, Hercules, California, United States of America), and fractions were diluted to a concentration of 1 mg/mL in PBS. […] 30 μL of each sample were separated by SDS-PAGE and analyzed by in-gel fluorescence scanning for the rhodamine azide tag. […]
In addition to solution reactivity, activity of KY-26 and XO44 in proteomes was compared using gel-based chemical proteomics. […] Probe-modified proteins were visualized by SDS-PAGE and in-gel fluorescence scanning. […]

[2] = test system: Jurkat cells; test: Gel-based chemical proteomics, live cell probe labeling; design: species or system human
Method: as §1, with “experiments. For KY-26 lysate labeling, 49 μL aliquots of cell lysate were used for each dose and time point before adding 1 μL of 50× KY-26 stock (5 μM final) and incubated for 30 min at 37° C.” for “experiments.”
as §2

[3] = HPLC solution reactivity of probe with p-cresol (tyrosine mimetic); type: physicochemical; conditions: UV 254 nm, TMG base, 0° C., longest time point tested 90 min
Method: (§3) Briefly, reaction progress of KY-26 or XO44 with p-cresol or n-butylamine (16.5 μmol, 3.3 eq.) in the presence of TMG base (1,1,3,3-tetramethylguanidine, 1.1 eq) was evaluated by monitoring probe consumption and quantified based on the signal from the caffeine standard using HPLC. Synthetic peptide reactions were conducted by mixing the peptide (Ac-RLNERHYGGLTGLNK-NH2, 50 nmol, 1.0 eq.) with 1.1 eq of TMG. KY-26 (550 nmol, 11.0 eq) was added to the mixture and the reaction was kept at 37° C. until the reaction achieved at least 50% conversion.
(§4) More particularly, an acetonitrile solution of p-cresol or n-butylamine (16.5 μmol, 3.3 eq.) was mixed with 1.1 eq of TMG. KY-26 or XO44 in ACN:DMF=6:4 (5 μmol, 1.0 eq.) was added to the mixture and the reaction was kept at 0° C. The final molarity for KY-26 or XO44 is 10 mM. Aliquots (50 μl) of the reaction were taken and quenched by adding acetic acid (0.5 M final, 5.0 μmol) and caffeine standard (0.05 M final, 0.5 μmol) at ten-minute intervals for 1.5 hrs. 1.0 μL sample was injected and analyzed by reverse-phase HPLC with mobile phases A (H2O, 0.1% AcOH) and B (CH3CN, 0.1% AcOH) with a gradient of 0-15-85-100% B in 0-0.5-6.5-7 min. UV measurements taken at 254 nm. Reaction progress was evaluated by monitoring KY-26 or XO44 consumption and quantified based on the signal from the caffeine standard. […]

[4] = HPLC solution reactivity of probe with n-butylamine (lysine mimetic); type: physicochemical; conditions: TMG base, 0° C., KY-26 compared with p-cresol
Method: as §3, §4

[5] = biological target: recombinant human CDK2 (Homo sapiens, UniProt P24941); test: Competition of KY-26 ABP labeling of recombinant CDK2 in HEK293T lysates; type: binding; conditions: then 2.5 μM KY-26 30 minutes
Method: Gateway cloning was performed to generate recombinant human CDK2 (containing a FLAG tag) overexpression plasmid (see FIG. 11) and recombinant human CDK2 was overexpressed in HEK293T mammalian cells. KY-26 and TH211 activity-based probe (ABP) labeling of the recombinant human CDK2 was performed. Briefly, recombinant human CDK2 overexpressed HEK293T lysates were incubated […] with various concentrations of TH211 (a broad-spectrum kinase ABP) or KY-26 (a targeted covalent kinase ABP) for 30- and 60-minutes. Western blots confirmed CDK2 overexpression with rabbit anti-FLAG and goat anti-rabbit 650 antibodies for samples incubated with KY-26 or TH211 probes.
Recombinant human CDK2 overexpressed HEK293T lysates were incubated with KY-424 (1 μM-10 μM) or free ATP (1 μM-10 μM) for 30 minutes at 37° C. Subsequently, samples were incubated with 2.5 μM KY-26 for 30 minutes at 37° C. […] Based on this finding, the study was performed using additional concentrations of KY-424 ([…]) or free ATP (400 μM-10 mM) for 30 minutes at 37° C. Again, samples were then incubated with 2.5 μM KY-26 for 30 minutes at 37° C. […] Lysates from 24- (KY-424 competition) and 48-hour transfections (ATP competition) were used.

| blockade of KY-26 labeling of recombinant human CDK2 ([5]; 40 nM KY-424, 30 minutes at 37° C., HEK293T lysates) | competition of KY-26 ABP labeling of recombinant human CDK2 ([5]; KY-424 1 μM-10 μM, 30 minutes at 37° C.) | SMILES | blockade of KY-26 labeling of proteomes [1] | probe labeling in live cells, dependence on concentration and time ([2]; 2.5-25 μM, 15-120 min) | proteome reactivity, in-gel fluorescence intensity compared with XO44 ([2]; live Jurkat cells, 5 μM, 30 min, 37° C.) | time to near-complete depletion of probe in reaction with p-cresol [3] | reaction of probe with n-butylamine [4] |
| --- | --- | --- | --- | --- | --- | --- | --- |
|  |  | Nc1ncnc2c1ncn2[C@@H]1O[C@H](COP(=O)(O)OP(=O)(O)OP(=O)(O)O)[C@@H](O)[C@H]1O [ATP, adenosine triphosphate, reference compound] | concentration-dependent blockade |  |  |  |  |
|  |  | C#CCNC(=O)c1cc(Nc2cc(C3CC3)[nH]n2)nc(N2CCN(C(=O)c3ccc(S(=O)(=O)n4cnc(-c5ccccc5)n4)cc3)CC2)n1 [KY-26, 6-((5-cyclopropyl-1H-pyrazol-3-yl)amino)-2-(4-(4-((3-phenyl-1H-1,2,4-triazol-1-yl)sulfonyl)benzoyl)piperazin-1-yl)-N-(prop-2-yn-1-yl)pyrimidine-4-carboxamide] |  | concentration- and time-dependent probe labeling | substantially increased reactivity | ≤ 20 min | reduced activity |
| approximately 50% | potently competes | CCCNC(=O)c1cc(Nc2cc(C3CC3)[nH]n2)nc(N2CCN(C(=O)c3ccc(S(=O)(=O)n4cnc(-c5ccccc5)n4)cc3)CC2)n1 [KY-424, 6-((5-cyclopropyl-1H-pyrazol-3-yl)amino)-2-(4-(4-((3-phenyl-1H-1,2,4-triazol-1-yl)sulfonyl)benzoyl)piperazin-1-yl)-N-propylpyrimidine-4-carboxamide] | concentration-dependent blockade |  |  |  |  |
|  |  | C#CCNC(=O)c1cc(Nc2cc(C3CC3)[nH]n2)nc(N2CCN(Cc3ccc(S(=O)(=O)F)cc3)CC2)n1 [XO44, reference compound] |  |  |  | > 90 min | minimal reaction |

From patent US20240400542A1 (University of Virginia Patent Foundation, priority 2021, published 2024)
